Where two headings read alike, the source gives them in different places.

For one series, the system named is ryegrass. Description: Nonselective composition of 1 uracil compound and 2 herbicidally active compounds, plant mortality. In kind it is in vivo.
The subject of the next series is wild amaranth. The series is described as above. In kind it is in vivo.
The subject of a further series is Alopecurus aequalis. As to the kind of experiment: Dry field farming herbicidal composition test, plant mortality. The conditions noted are these: in % (unit assumed). In kind it is in vivo.
A further series relates to Porippa islandica. The series is described as above. It counts as in vivo.
A further series has as its system Capsella bursapastoris. The series is described as above. The conditions noted are these: in % (unit assumed). It counts as in vivo.
The subject of another series is Lamium amplexicaule. The description is as above. In kind it is in vivo. Conditions: in % (unit assumed).
Another series has as its system wheat. Description: Dry field farming herbicidal composition test, plant mortality (crop).
The subject of another series is Echinochloa crus. Conditions: for Echinochloa crus mortality, measured value: 20 days after treatment; for plant mortality, measured value: Echinochloa crus.
For a further series, the system named is Digitaria sanguinalis. The conditions noted are these: for Digitaria sanguinalis mortality, measured value: 20 days after treatment; for plant mortality, measured value: Digitaria sanguinalis.
Another series has as its system Abutilon theophrasti. The conditions noted are these: for Abutilon theophrasti mortality, measured value: 20 days after treatment; for plant mortality, measured value: Abutilon theophrasti.
The subject of the next series is Aeschynomene indica. The conditions noted are these: for Aeschynomene indica mortality, measured value: 20 days after treatment; for plant mortality, measured value: Aeschynomene indica.
Another series relates to Xanthium spinosum. Conditions: for Xanthium spinosum mortality, measured value: 20 days after treatment; for plant mortality, measured value: Xanthium spinosum.
Setting [1] is: 480 h, read-out: ryegrass mortality (measured value).
[2] abbreviates: Amaranthus caudatus, 480 h, read-out: Wild amaranth mortality (measured value).

Source text for Abutilon theophrasti: (§1) X is % damage by uracil compound (a) of formula 1 at the rate of application of p kg/ha; Y is % damage by conventional herbicidal compound (b) at the rate of application of q kg/ha; and E is the expected damage caused by compounds (a) and (b) at a rate of application of p and q kg/ha.
(§2) The expected activity for a given combination of two herbicides can be calculated using equation 1 above.
Source text for Aeschynomene indica: as §1, §2
Source text for Alopecurus aequalis: as §1, §2
Source text for Capsella bursapastoris: as §1, §2
Source text for Digitaria sanguinalis: as §1, §2
Source text for Echinochloa crus: as §1, §2
Source text for Lamium amplexicaule: as §1, §2
Source text for Porippa islandica: as §1, §2
Source text for Xanthium spinosum: as §1, §2
Source text for ryegrass: as §1, §2
Source text for wheat: as §1, §2
Source text for wild amaranth: as §1, §2

Regarding `CCOCN(C(=O)CCl)c1c(C)cccc1CC` [Acetochlor], the pest or weed control at 375 g/ha in the series with ryegrass (setting [1]) was 30%; with wild amaranth (setting [2]), 10%.

`Nc1cc(Cl)nc(C(=O)O)c1Cl` [Aminopyralid]: the “ryegrass mortality (measured value)” value in the series on ryegrass (250 g ai/ha) is on record as 0. In the series with wild amaranth (250 g ai/ha), the “Wild amaranth mortality (measured value)” value was 20.

In the case of `COC(=O)NS(=O)(=O)c1ccc(N)cc1` [Asulam], the pest or weed control at 1250 g/ha is 25% with ryegrass (setting [1]) and 20% in the series with wild amaranth (setting [2]).

`CCNc1nc(Cl)nc(NC(C)C)n1` [Atrazine]: the values for the pest or weed control at 200 g/ha in the series on ryegrass (setting [1]) and with wild amaranth (setting [2]) were 30% and 25%, respectively.

As for `C[C@H](NC(=O)[C@H](C)NC(=O)[C@@H](N)CCP(C)(=O)O)C(=O)O` [Bilanafos], the pest or weed control at 500 g/ha stood at 30% in the series with ryegrass (480 h, 500 g ai/ha, read-out: ryegrass mortality (measured value)) and 15% in the series with wild amaranth (Amaranthus caudatus, 480 h, 500 g ai/ha, read-out: Wild amaranth mortality (measured value)).

In the case of `CC1(C)CON(Cc2ccccc2Cl)C1=O` [Clomazone], the figures for the pest or weed control at 175 g/ha in the series on ryegrass (setting [1]) and with wild amaranth (setting [2]) were 15% and 30%, respectively.

As to `O=C(O)c1nc(Cl)ccc1Cl` [Clopyralid], the pest or weed control at 125 g/ha was determined as 0% in the series on ryegrass (setting [1]) and 10% with wild amaranth (setting [2]).

`CC(Oc1ccc(Oc2ccc(Cl)cc2Cl)cc1)C(=O)O` (centres unmarked) [Diclofop]: the pest or weed control at 175 g/ha in the series with ryegrass (setting [1]) came out at 30%; in the series on wild amaranth (setting [2]) it was 0%.

With `O=C(Nc1ccc(F)cc1F)c1cccnc1Oc1cccc(C(F)(F)F)c1` [Diflufenican], the “Alopecurus aequalis mortality, measured value” in the series on Alopecurus aequalis (37.5 g/ha), with Alopecurus aequalis (75 g/ha) and with Alopecurus aequalis (150 g/ha) was 0 in each case. Besides, the figures for the “Porippa islandica mortality, measured value” in the series with Porippa islandica (37.5 g/ha), in the series on Porippa islandica (75 g/ha) and with Porippa islandica (150 g/ha) were 5, 20 and 40, respectively. The results for the “Capsella bursapastoris mortality, measured value” with Capsella bursapastoris (37.5 g/ha), with Capsella bursapastoris (75 g/ha) and in the series on Capsella bursapastoris (150 g/ha) were 6, 21 and 45, respectively. Besides, the “Lamium amplexicaule mortality, measured value” in the series with Lamium amplexicaule (37.5 g/ha) amounted to 10; in the series on Lamium amplexicaule (75 g/ha), 24; in the series on Lamium amplexicaule (150 g/ha), 47. Also, the “Wheat mortality, measured value” worked out at 0 with wheat (37.5 g/ha), 0 with wheat (75 g/ha) and 1 in the series on wheat (150 g/ha).

On to `C/C(=N\NC(=O)Nc1cc(F)cc(F)c1)c1ncccc1C(=O)O` [Diflufenzopyr], for which the pest or weed control at 12.5 g/ha in the series with ryegrass (setting [1]) and in the series on wild amaranth (setting [2]) was 20% throughout.

Consider `CCOC1Oc2ccc(OS(C)(=O)=O)cc2C1(C)C` (centres unmarked) [Ethofumesate], for which the values for the pest or weed control at 250 g/ha in the series with ryegrass (setting [1]) and in the series with wild amaranth (setting [2]) were 25% and 20%, respectively.

For the compound `CP(=O)(O)CCC(N)C(=O)O` (centres unmarked) [Glufosinate-ammonium], the pest or weed control at 150 g/ha in the series on ryegrass (setting [1]) stood at 10%; in the series on wild amaranth (setting [2]), 20%.

On to `CC(C)N.O=C(O)CNCP(=O)(O)O` [Glyphosate-IPA], for which the “ryegrass mortality (measured value)” value with ryegrass (300 g ai/ha) came to 10. For the same compound, the “Wild amaranth mortality (measured value)” value with wild amaranth (300 g ai/ha) is reported as 10.

For the compound `COCc1cnc(C2=NC(C)(C(C)C)C(=O)N2)c(C(=O)O)c1` (centres unmarked) [Imazamox], the results for the pest or weed control at 8.3 g/ha with ryegrass (setting [1]) and in the series on wild amaranth (setting [2]) were 30% and 20%, respectively.

For `CCC(C)(CC)c1cc(NC(=O)c2c(OC)cccc2OC)on1` [Isoxaben], the pest or weed control at 31 g/ha in the series on ryegrass (setting [1]) stood at 0%; with wild amaranth (setting [2]) it was 30%.

For the compound `C[C@@H](Oc1ccc(Oc2nc3ccc(Cl)cc3o2)cc1)C(=O)N(C)c1ccccc1F` [Metamifop, reference compound], the entries for the “Echinochloa crus mortality, measured value” with Echinochloa crus (25 g/ha), with Echinochloa crus (50 g/ha) and in the series with Echinochloa crus (100 g/ha) were 11%, 26% and 57%, respectively. The “plant mortality, measured value” in the series with Echinochloa crus (25 g/ha) was 11; with Echinochloa crus (50 g/ha), 26; in the series with Echinochloa crus (100 g/ha), 57; in the series on Digitaria sanguinalis (25 g/ha) it was 11; in the series on Digitaria sanguinalis (50 g/ha), 23; in the series with Digitaria sanguinalis (100 g/ha), 48. In addition, the “plant mortality, measured value” with Abutilon theophrasti (25 g/ha), in the series with Abutilon theophrasti (50 g/ha), in the series on Abutilon theophrasti (100 g/ha), in the series on Aeschynomene indica (25 g/ha), in the series on Aeschynomene indica (50 g/ha) and in the series on Aeschynomene indica (100 g/ha) was 0 throughout. The “plant mortality, measured value” in the series with Xanthium spinosum (25 g/ha), in the series with Xanthium spinosum (50 g/ha) and with Xanthium spinosum (100 g/ha) was 0 throughout. Further, the “Digitaria sanguinalis mortality, measured value” with Digitaria sanguinalis (25 g/ha) was 11%; in the series on Digitaria sanguinalis (50 g/ha) it was 23%; in the series on Digitaria sanguinalis (100 g/ha), 48%. The “Abutilon theophrasti mortality, measured value” in the series on Abutilon theophrasti (25 g/ha), in the series with Abutilon theophrasti (50 g/ha) and in the series with Abutilon theophrasti (100 g/ha) was 0% in each case. Further, the “Aeschynomene indica mortality, measured value” in the series on Aeschynomene indica (25 g/ha), in the series on Aeschynomene indica (50 g/ha) and with Aeschynomene indica (100 g/ha) was 0% throughout. Also, the “Xanthium spinosum mortality, measured value” in the series with Xanthium spinosum (25 g/ha), in the series on Xanthium spinosum (50 g/ha) and in the series with Xanthium spinosum (100 g/ha) was 0% in each case.

For the compound `CC(C)Oc1cc(-n2nc(C(C)(C)C)oc2=O)c(Cl)cc1Cl` [Oxadiazon], the pest or weed control at 500 g/ha in the series on ryegrass (setting [1]) and with wild amaranth (setting [2]) was 30% in each case.

With `CCC(CC)Nc1c([N+](=O)[O-])cc(C)c(C)c1[N+](=O)[O-]` [Pendimethalin], the values for the pest or weed control at 250 g/ha in the series on ryegrass (setting [1]) and in the series on wild amaranth (setting [2]) were 30% and 20%, respectively.

As for `O=C(Nc1ccc(F)cc1)c1cccc(Oc2cccc(C(F)(F)F)c2)n1` [Picolinafen], the “ryegrass mortality (measured value)” value with ryegrass (25 g ai/ha) turned out to be 0. The “Wild amaranth mortality (measured value)” value in the series on wild amaranth (25 g ai/ha) is given as 25.

As to `CS(=O)(=O)c1ccc(C(=O)C2C(=O)CCCC2=O)c(Cl)c1` [Sulcotrione], the pest or weed control at 75 g/ha in the series on ryegrass (setting [1]) and with wild amaranth (setting [2]) was 20% throughout.

With `COc1cc(OC)nc(NC(=O)NS(=O)(=O)c2ncccc2OCC(F)(F)F)n1` [Trifloxysulfuron], the figures for the “Data (measured value) Echinochloa crus” value with Echinochloa crus (1.25 g/ha) and in the series on Echinochloa crus (5 g/ha) were 8 and 56, respectively. Further, the “plant mortality, measured value” is 8 with Echinochloa crus (1.25 g/ha); 56 in the series on Echinochloa crus (5 g/ha); 8 in the series on Digitaria sanguinalis (1.25 g/ha); 51 in the series with Digitaria sanguinalis (5 g/ha); 12 in the series with Abutilon theophrasti (1.25 g/ha); 61 in the series with Abutilon theophrasti (5 g/ha). For the same compound, the “plant mortality, measured value” is 9 in the series with Aeschynomene indica (1.25 g/ha), 58 in the series on Aeschynomene indica (5 g/ha), 13 in the series with Xanthium spinosum (1.25 g/ha) and 62 with Xanthium spinosum (5 g/ha). For the same compound, the figures for the “Data (measured value) Digitaria sanguinalis” value in the series on Digitaria sanguinalis (1.25 g/ha) and in the series on Digitaria sanguinalis (5 g/ha) were 8 and 51, respectively. Besides, the entries for the “Data (measured value) Abutilon theophrasti” value in the series on Abutilon theophrasti (1.25 g/ha) and with Abutilon theophrasti (5 g/ha) were 12 and 61, respectively. The results for the “Data (measured value) Aeschynomene indica” value in the series on Aeschynomene indica (1.25 g/ha) and in the series on Aeschynomene indica (5 g/ha) were 9 and 58, respectively. The “Data (measured value) Xanthium spinosum” value with Xanthium spinosum (1.25 g/ha) worked out at 13; with Xanthium spinosum (5 g/ha) it was 62.

The values above are taken from patent US10206399B2, “Herbicidal composition comprising uracil compound as active ingredient” (Dongbu Farm Hannong Co., Ltd., priority 2012, dated 2019).
